Legend:
PC-12 [1] = assay: Neuroprotective activity against CoCl2-induced neuronal injury in rat PC-12 cells assessed as cell viability at 30 uM relative to control; assay type: functional; conditions: read-out: Activity
PC-12 [2] = assay: Neuroprotective activity against CoCl2-induced neuronal injury in rat PC-12 cells assessed as increase in cell viability; assay type: functional, cell-based
[3] = Rattus norvegicus, PC-12, read-out: EC50

SMILES	viability at 30 µM (PC-12 [1])	EC50 (PC-12 [2]; pc-12)	EC50 (PC-12 [2]; [3])
CC(=O)[C@@H]1CC[C@]2(C(=O)O)CC[C@]3(C)[C@H](C[C@@H](O)[C@@H]4[C@@]5(C)CCC(=O)C(C)(C)[C@@H]5C[C@H](O)[C@]43C)[C@@H]12	105%	Not Active	–
CC(=O)[C@@H]1CC[C@]2(C(=O)O)CC[C@]3(C)[C@H](CC[C@@H]4[C@@]5(C)CC[C@H](O)[C@@](C)(CO)[C@@H]5C[C@H](O)[C@]43C)[C@@H]12	110%	Not Active	–
CC(=O)[C@@H]1CC[C@]2(C(=O)O)CC[C@]3(C)[C@H](CC[C@@H]4[C@@]5(C)CC[C@H](O)C(C)(C)[C@@H]5C[C@H](O)[C@]43C)[C@@H]12	105%	Not Active	–
CC(=O)[C@@H]1CC[C@]2(C(=O)O)CC[C@]3(C)[C@H](CC[C@@H]4[C@@]5(C)CCC(=O)C(C)(C)[C@@H]5C[C@H](O)[C@]43C)[C@@H]12	96%	Not Active	–
CC(=O)[C@@H]1CC[C@]2(C(=O)O)C[C@H](O)[C@]3(C)[C@H](CC[C@@H]4[C@@]5(C)CC[C@H](O)C(C)(C)[C@@H]5C[C@H](O)[C@]43C)[C@@H]12	99.4%	Not Active	–
CC(=O)[C@@H]1CC[C@]2(C(=O)O)CC[C@]3(C)[C@H](C[C@@H](O)[C@@H]4[C@@]5(C)CCC(=O)C(C)(C)[C@@H]5CC[C@]43C)[C@@H]12	102%	–	10 nM
CC(=O)[C@@H]1CC[C@]2(C(=O)O)C[C@H](O)[C@]3(C)[C@H](CC[C@@H]4[C@@]5(C)CCC(=O)C(C)(C)[C@@H]5C[C@H](O)[C@]43C)[C@@H]12	104%	Not Active	–
CC(=O)[C@@H]1CC[C@]2(C(=O)O)CC[C@]3(C)[C@H](CC[C@@H]4[C@@]5(C)CC[C@H](O)C(C)(C)[C@@H]5CC[C@]43C)[C@@H]12 [PLATANIC ACID]	96.8%	–	170 nM
OC[C@H]1O[C@@H](OCCc2ccc(O)cc2)[C@H](O)[C@@H](O)[C@@H]1O [SALIDROSIDE]	99.2%	–	–

From ChEMBL document CHEMBL4725322, “New 30-norlupane derivatives through chemical-microbial semi-synthesis of betulinic acid and their neuroprotective effect” (Bioorg Med Chem Lett, 2020)
